{"source": "patent US20140336248A1", "about": "“THERAPEUTIC COMPOSITIONS AND RELATED METHODS OF USE” (priority 2011, published 2014)", "assay_type_in_all_cases": "in vivo, mouse", "key": {"ICR mice [1]": {"system": "ICR mice", "assay": "Tolerability 5.0, 10.0 mg/kg orally in 1% ethanol/4% propylene glycol/5% Solutol HS 15 (Example J)", "experimental": "Fompositions for oral administration were prepared as follows: A) 1.0 mg/mL composition: 5.05 mg of salinomycin sodium was added to 50 μL ethanol and vortexed for 1 minute to yield a clear solution. 200 μL of propylene glycol was then added and vortexed for 1 minute, yielding a clear solution. To this solution was next added 250 μL Solutol® HS 15, with vortexing for 1 minute and sonicating for 1 minute, to yield a clear solution.\n(§1) Six male ICR mice (Sino-British SIPPR/BK Lab Animal Ltd, Shanghai, China) were assigned to control and treatment groups. […] The individual animal number marked on the tail, and study number comprised a unique identification for each animal. Animal identification was verified during the course of the study. The animals were housed two per cage in stainless steel suspended cage in an environmentally controlled room. SLACOM (Rodent Diet #20110615029, Shanghai SLAC Laboratory Animal Co. Ltd.) was available ad libitum. Temperature and humidity were monitored and recorded twice daily.\nEach composition and the vehicle (control) were administered once daily to each of two mice via oral gavage for 5 consecutive days. The dose levels for the treated groups and the control group are in the below table. Individual doses were based on the most recent body weight.\n(§2) Body weights for all animals were measured and recorded at receipt, prior to randomization, and once daily during the study. Body weight change was calculated for mean value of animals relative to Day 1 mean body weight value."}, "ICR mice [2]": {"system": "ICR mice", "assay": "Tolerability IV in 10% ethanol/10% Solutol HS 15, 5 days (Example K)", "conditions": "for Clinical observations: post dosage", "experimental": "Injectable salinomycin compositions were prepared as follows: 0.6 mg/mL stock solution: 1.2 mg of salinomycin sodium was added to 200 μL ethanol and vortexed for 2 minutes and sonicated for 30 seconds to yield a clear solution. To this solution was next added 200 μL Solutol® HS 15, with vortexing for 2 minutes. Finally, 1.6 mL water was added to produce a clear stock solution of 0.6 mg/mL salinomycin sodium.\nas §1\nEach composition and the vehicle (control) were administered once daily to each of two mice via intravenous bolus injection for 5 consecutive days. The dose levels for the treated groups and the control group are in the below table. Individual doses were based on the most recent body weight.\nas §2"}, "ICR mice [3]": {"system": "ICR mice", "assay": "Tolerability 0.1, 0.3, 1.0, 3.0 mg/kg IV in 10% ethanol/10% Solutol HS 15, 4 days (Example M)", "experimental": "as §1, with “Using the techniques described above in Example B, an aqueous vehicle comprising 10% ethanol (v/v) and 10% Solutol® HS 15 (v/v) was prepared. An appropriate amount of salinomycin sodium was dissolved into the vehicle to make solutions having concentrations of 0.02, 0.06, 0.2, and 0.3 mg/mL. Ten male ICR” for “Six male ICR”, “animal number was marked on” for “animal number marked on”\n(§3) Each composition and the vehicle (control) were administered once daily to each of two mice via intravenous bolus injection for 4 consecutive days. The dose levels for the treated groups and the control group are in the below table. Individual doses were based on the most recent body weight.\nas §2"}, "ICR mice [4]": {"system": "ICR mice", "assay": "Tolerability 0.1, 0.3, 1.0, 3.0 mg/kg IV in 5% ethanol/15% Solutol HS 15, 4 days (Example N)", "experimental": "as §1, with “Using the techniques described above in Example A, an aqueous vehicle comprising 5% ethanol (v/v) and 15% Solutol® HS 15 (v/v) was prepared. An appropriate amount of salinomycin sodium was dissolved into the vehicle to make solutions having concentrations of 0.02, 0.06, 0.2, and 0.3 mg/mL. Ten male ICR” for “Six male ICR”, “animal number was marked on” for “animal number marked on”\nas §3, §2"}, "ICR mice [5]": {"system": "ICR mice", "assay": "Tolerability 0.1, 0.3, 1.0 mg/kg IV in 1% ethanol/4% propylene glycol/5% Solutol HS 15, 4 days (Example P)", "experimental": "as §1, with “Using the techniques described above in Example A, an aqueous vehicle comprising 1% ethanol (v/v), 4% propylene glycol (v/v) and 5% Solutol® HS 15 (v/v) was prepared. An appropriate amount of salinomycin sodium was dissolved into the vehicle to make solutions having concentrations of 0.02, 0.06, and 0.2 mg/mL. Eight male ICR” for “Six male ICR”, “animal number was marked on” for “animal number marked on”\nas §3, §2"}, "ICR mice [6]": {"system": "ICR mice", "assay": "Tolerability 0.03, 0.1, 0.3, 1.0 mg/kg IV in 5% ethanol/10% propylene glycol/20% Solutol HS 15, 4 days (Example Q)", "conditions": "5% ethanol/10% propylene glycol/20% Solutol HS 15 (heading)", "experimental": "as §1, with “Using the techniques described above in Example A, an aqueous vehicle comprising 5% ethanol (v/v), 10% propylene glycol (v/v), and 10% Solutol® HS 15 (v/v) was prepared. An appropriate amount of salinomycin sodium was dissolved into the vehicle to make solutions having concentrations of 0.006, 0.02, 0.06, and 0.2 mg/mL. Ten male ICR” for “Six male ICR”, “animal number was marked on” for “animal number marked on”\nas §3, §2"}, "[7]": {"conditions": "1.0 mg/kg IV once daily 4 days, after the first administration, no abnormalities on days 2, 3, 4"}}, "data": [{"compound": "CC[C@@H](C(=O)[C@@H](C)[C@@H](O)[C@H](C)[C@@H]1O[C@@H]([C@@H](CC)C(=O)O)CC[C@@H]1C)[C@H]1O[C@]2(C=C[C@@H](O)[C@]3(CC[C@@](C)([C@H]4CC[C@](O)(CC)[C@H](C)O4)O3)O2)[C@H](C)C[C@@H]1C", "note": "[salinomycin sodium]", "values": [{"measurement": "Abnormalities detected", "setting": "ICR mice [1]; 5, 10 mg/kg oral gavage once daily 5 days, 1% ethanol/4% propylene glycol/5% Solutol HS 15", "value": "no abnormalities"}, {"measurement": "Body weight change relative to Day 1", "setting": "ICR mice [1]; 5, 10 mg/kg oral gavage once daily 5 days, 1% ethanol/4% propylene glycol/5% Solutol HS 15, FIG. 3", "value": "all groups added weight"}, {"measurement": "Maximum oral tolerated dosage", "setting": "ICR mice [1]; oral gavage once daily 5 days, male ICR mice", "value": "at least 10 mg/kg"}, {"measurement": "Clinical observations", "setting": "ICR mice [2]; 0.1 mg/kg IV once daily 5 days", "value": "decreased activity (e.g., more time spent laying prostrate), rapid breathing, and partially-closed eyelids"}, {"measurement": "Clinical observations", "setting": "ICR mice [2]; 0.3 mg/kg IV once daily 5 days", "value": "decreased activity levels, partially-closed eyelids, and skin cold to the touch"}, {"measurement": "Body weight change relative to Day 1", "setting": "ICR mice [2]; 0.1, 0.3 mg/kg IV once daily 5 days, FIG. 4", "value": "all groups added weight"}, {"measurement": "Clinical observations", "setting": "ICR mice [3]; 0.1 mg/kg IV once daily 4 days", "value": "no abnormalities"}, {"measurement": "Clinical observations", "setting": "ICR mice [3]; 0.3 mg/kg IV once daily 4 days, dissipated after 3 hours, no abnormalities on days 2, 3, 4", "value": "skin cold to the touch after the first administration"}, {"measurement": "Clinical observations", "setting": "ICR mice [3]; [7]", "value": "decreased activity, decreased grasping, and skin cold to the touch"}, {"measurement": "Mortality", "setting": "ICR mice [3]; 3.0 mg/kg IV", "value": "died shortly after administration"}, {"measurement": "Body weight", "setting": "ICR mice [3]; each group surviving administration, IV once daily 4 days, FIG. 6", "value": "relatively stable"}, {"measurement": "Clinical observations", "setting": "ICR mice [4]; 0.1 mg/kg IV once daily 4 days", "value": "no abnormalities"}, {"measurement": "Clinical observations", "setting": "ICR mice [4]; 0.3 mg/kg IV once daily 4 days", "value": "no abnormalities"}, {"measurement": "Clinical observations", "setting": "ICR mice [4]; [7]", "value": "decreased activity, decreased grasping, and laying prostrate"}, {"measurement": "Mortality", "setting": "ICR mice [4]; 3.0 mg/kg IV", "value": "died shortly after administration"}, {"measurement": "Body weight", "setting": "ICR mice [4]; each group surviving administration, IV once daily 4 days, FIG. 7", "value": "relatively stable"}, {"measurement": "Clinical observations", "setting": "ICR mice [5]; 0.1 mg/kg IV once daily 4 days", "value": "no abnormalities"}, {"measurement": "Clinical observations", "setting": "ICR mice [5]; 0.3 mg/kg IV once daily 4 days", "value": "no abnormalities"}, {"measurement": "Clinical observations", "setting": "ICR mice [5]; 1 mg/kg IV once daily 4 days, no abnormalities on days 2, 3, 4", "value": "decrease in activity after initial administration"}, {"measurement": "Body weight", "setting": "ICR mice [5]; 0.1, 0.3, 1 mg/kg IV once daily 4 days, FIG. 9", "value": "increased"}, {"measurement": "Clinical observations", "setting": "ICR mice [6]; 0.03 mg/kg IV once daily 4 days", "value": "no abnormalities"}, {"measurement": "Clinical observations", "setting": "ICR mice [6]; 0.1 mg/kg IV once daily 4 days, after administration, no abnormalities on days 2, 3, 4", "value": "decreased activity and discolored urine (red)"}, {"measurement": "Clinical observations", "setting": "ICR mice [6]; 0.3 mg/kg IV once daily 4 days, after administration, no abnormalities on days 2, 3, 4", "value": "decreased activity and discolored urine (red)"}, {"measurement": "Mortality", "setting": "ICR mice [6]; 1.0 mg/kg IV", "value": "died shortly after administration"}, {"measurement": "Body weight", "setting": "ICR mice [6]; each group surviving administration, IV once daily 4 days, FIG. 10", "value": "relatively stable"}]}]}
